Experiments:
Test in all cases: KINOMEscan
Type in all cases: binding
Settings in all cases: 2000 nM
ERK4 = target: T1, ERK4 (Homo sapiens, UniProt P31152)
T1 construct: DNA label (qPCR read-out); purchased DiscoveRx (KINOMEscan ScanMAX panel)

ALK(L1196M) = target: T2, ALK(L1196M) (Homo sapiens, UniProt Q9UM73, L1196M)
T2 construct: DNA label (qPCR read-out); purchased KINOMEscan scanMAX panel (DiscoveRx)

LIMK2 = target: T3, LIMK2 (Homo sapiens, UniProt P53671)
T3 construct: purchased KINOMEscan (DiscoveRx) panel service

GRK1 = target: T4, GRK1 (Homo sapiens, UniProt Q15835)
T4 construct: purchased KINOMEscan (DiscoveRx)

LOK = target: T5, LOK (Homo sapiens, UniProt O94804)
T5 construct: purchased KINOMEscan (DiscoveRx) panel service

TAK1 = target: T6, TAK1 (Homo sapiens, UniProt O43318)
T6 construct: DNA label (for qPCR read-out); purchased DiscoveRx (KINOMEscan scanMAX panel, contract assay)

PIK3CA(H1047Y) = target: T7, PIK3CA(H1047Y) (Homo sapiens, UniProt P42336, H1047Y)
T7 construct: DNA label; purchased DiscoveRx (KINOMEscan scanMAX panel)

RIPK5 = target: T8, RIPK5 (Homo sapiens, UniProt Q6XUX3)
T8 construct: DNA label (qPCR read-out); purchased DiscoveRx (KINOMEscan ScanMAX panel)

SgK110 = target: T9, SgK110 (Homo sapiens, UniProt P0C264)
T9 construct: purchased DiscoveRx (KINOMEscan scanMAX panel)

CAMKK1 = target: T10, CAMKK1 (Homo sapiens, UniProt Q8N5S9)
T10 construct: DNA label (qPCR read-out); purchased KINOMEscan (ScanMAX panel service)

[1] = target: T11, RPS6KA5(Kin.Dom.2-C-terminal) (Homo sapiens, UniProt O75582)
T11 construct: RPS6KA5(Kin.Dom.2); purchased DiscoveRx (KINOMEscan scanMAX panel)

ASK1 = target: T12, ASK1 (Homo sapiens, UniProt Q99683)
T12 construct: DNA label (qPCR read-out); purchased KINOMEscan scanMAX panel (DiscoveRx)

ACVR1B = target: T13, ACVR1B (Homo sapiens, UniProt P36896)
T13 construct: purchased DiscoveRx (KINOMEscan scanMAX panel, service)

DAPK3 = target: T14, DAPK3 (Homo sapiens, UniProt O43293)
T14 construct: DNA label; purchased DiscoveRx (KINOMEscan scanMAX panel)

MYO3A = target: T15, MYO3A (Homo sapiens, UniProt Q8NEV4)
T15 construct: DNA label (for qPCR read-out); purchased KINOMEscan scanMAX panel (DiscoveRx)

PIM2 = target: T16, PIM2 (Homo sapiens, UniProt Q9P1W9)
T16 construct: DNA label (qPCR read-out); purchased KINOMEscan (DiscoveRx) panel

DAPK1 = target: T17, DAPK1 (Homo sapiens, UniProt P53355)
T17 construct: DNA label; purchased DiscoveRx (KINOMEscan scanMAX panel)

PRKCI = target: T18, PRKCI (Homo sapiens, UniProt P41743)
T18 construct: purchased DiscoveRx (KINOMEscan scanMAX panel)

CDKL1 = target: T19, CDKL1 (Homo sapiens, UniProt Q00532)
T19 construct: purchased DiscoverX (KINOMEscan service)

PIK3CA(I800L) = target: T20, PIK3CA(I800L) (Homo sapiens, UniProt P42336, I800L)
T20 construct: DNA label; purchased DiscoveRx (KINOMEscan scanMAX panel)

AMPK-alpha1 = target: T21, AMPK-alpha1 (Homo sapiens, UniProt Q13131)
T21 construct: DNA label (qPCR read-out); purchased KINOMEscan scanMAX panel (DiscoveRx)

NEK10 = target: T22, NEK10 (Homo sapiens, UniProt Q6ZWH5)
T22 construct: DNA label (qPCR read-out); purchased KINOMEscan (ScanMAX panel service)

EPHA8 = target: T23, EPHA8 (Homo sapiens, UniProt P29322)
T23 construct: purchased DiscoveRx (KINOMEscan scanMAX panel)

CDK8 = target: T24, CDK8 (Homo sapiens, UniProt P49336)
T24 construct: DNA label (qPCR read-out); purchased DiscoverX (assay service)

NEK6 = target: T25, NEK6 (Homo sapiens, UniProt Q9HC98)
T25 construct: DNA label (qPCR read-out); purchased KINOMEscan (ScanMAX panel service)

TAOK1 = target: T26, TAOK1 (Homo sapiens, UniProt Q7L7X3)
T26 construct: DNA label (for qPCR read-out); purchased DiscoveRx (KINOMEscan scanMAX panel, contract assay)

TGFBR1 = target: T27, TGFBR1 (Homo sapiens, UniProt P36897)
T27 construct: DNA label (for qPCR read-out); purchased DiscoveRx (KINOMEscan scanMAX panel, contract assay)

FGFR4 = target: T28, FGFR4 (Homo sapiens, UniProt P22455)
T28 construct: purchased DiscoveRx (KINOMEscan scanMAX panel)

TXK = target: T29, TXK (Homo sapiens, UniProt P42681)
T29 construct: DNA label (for qPCR read-out); purchased DiscoveRx (KINOMEscan scanMAX panel)

HPK1 = target: T30, HPK1 (Homo sapiens, UniProt Q92918)
T30 construct: DNA label (for qPCR read-out); purchased DiscoveRx (KINOMEscan scanMAX panel, contract assay)

PCTK2 = target: T31, PCTK2 (Homo sapiens, UniProt Q00537)
T31 construct: purchased DiscoverX (KINOMEscan service)

PDPK1 = target: T32, PDPK1 (Homo sapiens, UniProt O15530)
T32 construct: DNA label (for qPCR read-out); purchased DiscoveRx (KINOMEscan scanMAX service)

CLK3 = target: T33, CLK3 (Homo sapiens, UniProt P49761)
T33 construct: DNA label (for qPCR read-out); purchased DiscoveRx (KINOMEscan scanMAX service)

MYO3B = target: T34, MYO3B (Homo sapiens, UniProt Q8WXR4)
T34 construct: DNA label (for qPCR read-out); purchased KINOMEscan scanMAX panel (DiscoveRx)

[2] = target: T35, TYK2(JH1domain-catalytic) (Homo sapiens, UniProt P29597)
T35 construct: JH1domain; DNA label (for qPCR read-out); purchased DiscoveRx (KINOMEscan scanMAX panel)

T2 sequence (Q9UM73 19-1620 L1196M): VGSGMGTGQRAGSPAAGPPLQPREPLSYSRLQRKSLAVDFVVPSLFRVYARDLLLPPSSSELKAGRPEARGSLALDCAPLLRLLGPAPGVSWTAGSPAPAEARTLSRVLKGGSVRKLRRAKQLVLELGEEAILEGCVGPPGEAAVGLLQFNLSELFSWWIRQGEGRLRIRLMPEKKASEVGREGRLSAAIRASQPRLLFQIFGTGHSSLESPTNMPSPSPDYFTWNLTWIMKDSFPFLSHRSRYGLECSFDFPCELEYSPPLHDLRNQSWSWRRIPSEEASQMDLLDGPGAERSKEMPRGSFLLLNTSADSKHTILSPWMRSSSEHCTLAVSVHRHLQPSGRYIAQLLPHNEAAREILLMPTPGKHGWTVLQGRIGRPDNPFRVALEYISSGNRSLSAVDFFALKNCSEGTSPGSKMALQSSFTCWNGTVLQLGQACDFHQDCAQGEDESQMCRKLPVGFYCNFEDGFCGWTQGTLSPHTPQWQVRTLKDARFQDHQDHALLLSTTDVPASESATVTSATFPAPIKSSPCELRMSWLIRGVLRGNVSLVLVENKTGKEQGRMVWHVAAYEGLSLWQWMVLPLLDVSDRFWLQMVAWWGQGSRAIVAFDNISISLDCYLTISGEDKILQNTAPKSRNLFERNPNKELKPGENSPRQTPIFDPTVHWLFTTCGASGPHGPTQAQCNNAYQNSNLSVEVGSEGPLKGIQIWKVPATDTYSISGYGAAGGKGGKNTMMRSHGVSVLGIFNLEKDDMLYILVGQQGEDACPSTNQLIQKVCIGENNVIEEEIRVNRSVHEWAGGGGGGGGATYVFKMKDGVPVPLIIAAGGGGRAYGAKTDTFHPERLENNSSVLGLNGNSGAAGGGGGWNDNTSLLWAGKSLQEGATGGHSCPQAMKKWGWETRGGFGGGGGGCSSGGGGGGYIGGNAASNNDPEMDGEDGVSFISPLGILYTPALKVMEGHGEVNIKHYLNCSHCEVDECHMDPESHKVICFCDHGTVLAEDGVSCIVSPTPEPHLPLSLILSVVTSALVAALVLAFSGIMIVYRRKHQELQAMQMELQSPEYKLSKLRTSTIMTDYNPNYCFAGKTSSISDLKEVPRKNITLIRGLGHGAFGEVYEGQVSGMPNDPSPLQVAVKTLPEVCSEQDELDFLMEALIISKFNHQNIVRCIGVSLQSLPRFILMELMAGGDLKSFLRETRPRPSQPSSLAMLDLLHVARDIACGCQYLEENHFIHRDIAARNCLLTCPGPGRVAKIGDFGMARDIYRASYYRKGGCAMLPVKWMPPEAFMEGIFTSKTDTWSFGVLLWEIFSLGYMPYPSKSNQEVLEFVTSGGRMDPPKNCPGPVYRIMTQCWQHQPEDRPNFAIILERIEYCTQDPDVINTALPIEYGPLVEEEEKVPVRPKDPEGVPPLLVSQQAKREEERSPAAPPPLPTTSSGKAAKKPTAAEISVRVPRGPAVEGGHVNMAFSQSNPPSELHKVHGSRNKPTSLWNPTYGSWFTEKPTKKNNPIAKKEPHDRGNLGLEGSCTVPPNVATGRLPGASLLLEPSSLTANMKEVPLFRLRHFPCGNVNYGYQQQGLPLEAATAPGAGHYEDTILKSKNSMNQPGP
T27 sequence (P36897 34-503): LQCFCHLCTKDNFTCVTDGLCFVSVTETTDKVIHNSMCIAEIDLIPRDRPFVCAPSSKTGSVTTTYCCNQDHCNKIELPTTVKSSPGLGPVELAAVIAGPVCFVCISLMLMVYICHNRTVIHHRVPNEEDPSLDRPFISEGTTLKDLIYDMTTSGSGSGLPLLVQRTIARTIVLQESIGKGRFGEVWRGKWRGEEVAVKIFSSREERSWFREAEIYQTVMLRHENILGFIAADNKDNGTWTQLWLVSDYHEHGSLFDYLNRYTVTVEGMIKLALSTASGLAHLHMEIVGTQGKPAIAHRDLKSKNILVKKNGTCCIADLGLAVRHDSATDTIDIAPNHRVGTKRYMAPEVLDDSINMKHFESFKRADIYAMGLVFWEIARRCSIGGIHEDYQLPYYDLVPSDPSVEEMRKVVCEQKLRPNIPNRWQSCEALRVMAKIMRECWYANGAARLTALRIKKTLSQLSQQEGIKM
T8 sequence (Q6XUX3 whole entry): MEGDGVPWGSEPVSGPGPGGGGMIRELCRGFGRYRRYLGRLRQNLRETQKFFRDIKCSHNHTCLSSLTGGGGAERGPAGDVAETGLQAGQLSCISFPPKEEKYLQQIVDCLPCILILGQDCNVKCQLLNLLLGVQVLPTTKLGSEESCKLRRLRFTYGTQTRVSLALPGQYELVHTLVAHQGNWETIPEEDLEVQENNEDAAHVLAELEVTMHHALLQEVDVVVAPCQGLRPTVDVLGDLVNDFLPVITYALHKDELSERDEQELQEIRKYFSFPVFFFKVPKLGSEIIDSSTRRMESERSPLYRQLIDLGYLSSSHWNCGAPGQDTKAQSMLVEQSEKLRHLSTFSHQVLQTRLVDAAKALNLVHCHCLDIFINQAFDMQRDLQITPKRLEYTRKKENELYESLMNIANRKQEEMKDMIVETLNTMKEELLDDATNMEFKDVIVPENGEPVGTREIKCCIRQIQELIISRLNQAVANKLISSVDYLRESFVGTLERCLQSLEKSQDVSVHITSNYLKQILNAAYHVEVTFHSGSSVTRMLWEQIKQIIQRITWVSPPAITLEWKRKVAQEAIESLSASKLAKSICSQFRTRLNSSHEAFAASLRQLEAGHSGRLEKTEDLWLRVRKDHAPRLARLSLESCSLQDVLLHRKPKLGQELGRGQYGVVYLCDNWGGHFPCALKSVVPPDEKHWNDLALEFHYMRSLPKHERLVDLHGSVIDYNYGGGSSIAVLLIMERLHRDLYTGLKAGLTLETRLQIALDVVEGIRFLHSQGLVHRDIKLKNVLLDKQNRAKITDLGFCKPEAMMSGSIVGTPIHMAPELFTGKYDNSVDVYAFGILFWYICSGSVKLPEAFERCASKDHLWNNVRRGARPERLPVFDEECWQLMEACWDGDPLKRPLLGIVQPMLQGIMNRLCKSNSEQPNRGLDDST
T1 sequence (P31152 whole entry): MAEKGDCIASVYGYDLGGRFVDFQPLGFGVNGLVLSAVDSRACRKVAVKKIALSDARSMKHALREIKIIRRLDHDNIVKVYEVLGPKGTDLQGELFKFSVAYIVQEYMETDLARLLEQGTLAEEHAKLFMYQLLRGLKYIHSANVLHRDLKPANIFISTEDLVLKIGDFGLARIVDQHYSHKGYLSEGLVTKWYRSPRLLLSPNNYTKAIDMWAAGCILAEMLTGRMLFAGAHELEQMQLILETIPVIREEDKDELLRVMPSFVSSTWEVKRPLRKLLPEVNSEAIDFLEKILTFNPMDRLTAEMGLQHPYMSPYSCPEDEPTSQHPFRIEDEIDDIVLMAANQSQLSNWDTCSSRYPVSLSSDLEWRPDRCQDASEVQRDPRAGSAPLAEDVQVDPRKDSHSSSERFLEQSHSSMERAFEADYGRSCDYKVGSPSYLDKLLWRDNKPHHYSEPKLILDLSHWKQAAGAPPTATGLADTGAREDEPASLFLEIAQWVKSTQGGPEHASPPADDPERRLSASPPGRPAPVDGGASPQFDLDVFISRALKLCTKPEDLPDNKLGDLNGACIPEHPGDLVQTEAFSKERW
T18 sequence (P41743 whole entry): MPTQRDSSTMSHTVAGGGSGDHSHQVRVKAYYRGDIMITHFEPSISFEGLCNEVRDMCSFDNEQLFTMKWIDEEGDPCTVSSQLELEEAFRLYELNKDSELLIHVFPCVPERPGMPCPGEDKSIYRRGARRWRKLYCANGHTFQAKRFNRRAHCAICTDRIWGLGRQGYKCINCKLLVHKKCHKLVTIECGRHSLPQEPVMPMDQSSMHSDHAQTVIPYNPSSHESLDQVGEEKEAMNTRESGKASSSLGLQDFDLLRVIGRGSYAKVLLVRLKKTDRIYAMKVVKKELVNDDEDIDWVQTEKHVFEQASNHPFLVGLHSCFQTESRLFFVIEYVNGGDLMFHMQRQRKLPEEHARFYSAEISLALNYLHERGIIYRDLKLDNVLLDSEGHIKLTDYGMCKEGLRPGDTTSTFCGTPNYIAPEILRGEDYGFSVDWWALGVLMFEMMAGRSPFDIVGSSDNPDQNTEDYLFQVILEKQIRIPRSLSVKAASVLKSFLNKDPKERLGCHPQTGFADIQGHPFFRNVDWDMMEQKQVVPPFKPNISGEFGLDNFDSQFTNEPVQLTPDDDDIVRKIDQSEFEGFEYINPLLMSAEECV
T21 sequence (Q13131 whole entry): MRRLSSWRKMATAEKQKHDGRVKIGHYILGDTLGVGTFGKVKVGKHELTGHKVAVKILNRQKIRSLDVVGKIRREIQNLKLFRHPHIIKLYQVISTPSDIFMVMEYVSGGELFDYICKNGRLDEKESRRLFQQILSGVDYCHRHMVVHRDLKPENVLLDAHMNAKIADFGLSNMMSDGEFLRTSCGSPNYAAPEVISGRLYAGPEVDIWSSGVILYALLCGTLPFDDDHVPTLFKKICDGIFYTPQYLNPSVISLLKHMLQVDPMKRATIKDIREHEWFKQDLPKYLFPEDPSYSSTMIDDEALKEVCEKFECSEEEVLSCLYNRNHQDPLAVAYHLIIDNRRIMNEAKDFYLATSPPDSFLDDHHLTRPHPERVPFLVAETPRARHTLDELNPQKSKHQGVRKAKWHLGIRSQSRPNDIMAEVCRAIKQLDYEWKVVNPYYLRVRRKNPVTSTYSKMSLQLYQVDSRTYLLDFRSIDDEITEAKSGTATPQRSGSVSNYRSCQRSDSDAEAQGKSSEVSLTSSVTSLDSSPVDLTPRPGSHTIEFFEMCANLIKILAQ
T16 sequence (Q9P1W9 whole entry): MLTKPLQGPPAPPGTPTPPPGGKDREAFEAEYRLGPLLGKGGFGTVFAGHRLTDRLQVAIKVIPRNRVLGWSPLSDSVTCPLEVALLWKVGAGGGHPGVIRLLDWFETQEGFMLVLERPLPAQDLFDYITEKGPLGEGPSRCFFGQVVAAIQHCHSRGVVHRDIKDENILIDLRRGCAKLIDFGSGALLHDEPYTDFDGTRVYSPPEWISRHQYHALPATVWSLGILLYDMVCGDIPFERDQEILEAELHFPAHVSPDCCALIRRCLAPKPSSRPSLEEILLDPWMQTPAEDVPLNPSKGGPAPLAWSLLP

Compound	% Ctrl (ERK4)	% Ctrl (ALK(L1196M))	% Ctrl (LIMK2)	% Ctrl (GRK1)	% Ctrl (LOK)	% Ctrl (TAK1)	% Ctrl (PIK3CA(H1047Y))	% Ctrl (RIPK5)	% Ctrl (SgK110)	% Ctrl (CAMKK1)	% Ctrl [1]	% Ctrl (ASK1)	% Ctrl (ACVR1B)	% Ctrl (DAPK3)	% Ctrl (MYO3A)	% Ctrl (PIM2)	% Ctrl (DAPK1)	% Ctrl (PRKCI)	% Ctrl (CDKL1)	% Ctrl (PIK3CA(I800L))	further results
[2H]C([2H])([2H])N(C(=O)c1ccc(N2CCCN(c3ccnc4sc(C(N)=O)c(N)c34)CC2)cc1)C([2H])([2H])[2H] [15u_D6, 3-amino-4-(4-(4-(bis(methyl-d3)carbamoyl)phenyl)-1,4-diazepan-1-yl)thieno[2,3-b]pyridine-2-carboxamide]	100 % Ctrl	92 % Ctrl	98 % Ctrl	81 % Ctrl	69 % Ctrl	62 % Ctrl	100 % Ctrl	72 % Ctrl	100 % Ctrl	100 % Ctrl	100 % Ctrl	100 % Ctrl	99 % Ctrl	83 % Ctrl	100 % Ctrl	89 % Ctrl	88 % Ctrl	100 % Ctrl	92 % Ctrl	74 % Ctrl	% Ctrl (AMPK-alpha1): 100 % Ctrl; % Ctrl (NEK10): 61 % Ctrl; % Ctrl (EPHA8): 83 % Ctrl; % Ctrl (CDK8): 0.25 % Ctrl; % Ctrl (NEK6): 100 % Ctrl; % Ctrl (TAOK1): 73 % Ctrl; % Ctrl (TGFBR1): 100 % Ctrl; % Ctrl (FGFR4): 96 % Ctrl; % Ctrl (TXK): 100 % Ctrl; % Ctrl (HPK1): 100 % Ctrl; % Ctrl (PCTK2): 100 % Ctrl; % Ctrl (PDPK1): 96 % Ctrl; % Ctrl (CLK3): 95 % Ctrl; % Ctrl (MYO3B): 100 % Ctrl; % Ctrl [2]: 82 % Ctrl
CN(C)C(=O)c1ccc(N2CCCN(c3ccnc4sc(C(N)=O)c(N)c34)CC2)cc1 [15u, 3-amino-4-(4-(4-(dimethylcarbamoyl)phenyl)-1,4-diazepan-1-yl)thieno[2,3-b]pyridine-2-carboxamide]	72 % Ctrl	96 % Ctrl	91 % Ctrl	98 % Ctrl	84 % Ctrl	93 % Ctrl	79 % Ctrl	100 % Ctrl	95 % Ctrl	96 % Ctrl	95 % Ctrl	100 % Ctrl	100 % Ctrl	81 % Ctrl	100 % Ctrl	85 % Ctrl	92 % Ctrl	100 % Ctrl	100 % Ctrl	97 % Ctrl	% Ctrl (AMPK-alpha1): 100 % Ctrl; % Ctrl (NEK10): 93 % Ctrl; % Ctrl (EPHA8): 94 % Ctrl; % Ctrl (CDK8): 2.6 % Ctrl; % Ctrl (NEK6): 92 % Ctrl; % Ctrl (TAOK1): 100 % Ctrl; % Ctrl (TGFBR1): 100 % Ctrl; % Ctrl (FGFR4): 100 % Ctrl; % Ctrl (TXK): 93 % Ctrl; % Ctrl (HPK1): 98 % Ctrl; % Ctrl (PCTK2): 62 % Ctrl; % Ctrl (PDPK1): 100 % Ctrl; % Ctrl (CLK3): 100 % Ctrl; % Ctrl (MYO3B): 87 % Ctrl; % Ctrl [2]: 95 % Ctrl

— US11572369B2, “Bicyclic pyridine compositions and methods of using the same for cancer therapy” (UNIVERSITY OF SOUTH CAROLINA, priority 2019, dated 2023)
